Laboratory results: ChEMBL document CHEMBL1201862, “PubChem BioAssay data set” (2004)
Calls of active or inactive are those of the source.

Key:
[1] = molecular target: T1, Alkaline phosphatase, tissue-nonspecific isozyme (Homo sapiens, UniProt P05186); assay: activation of tissue-nonspecific alkaline phosphatase – biochemical, TNAP isozyme, human IAP uHTS hits, selectivity assay for human IAP activator project, dose response (AID 488886); type: functional;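 further: potency of compounds raising TNAP activity as a selectivity check on IAP activators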
T1 sequence (P05186 whole entry): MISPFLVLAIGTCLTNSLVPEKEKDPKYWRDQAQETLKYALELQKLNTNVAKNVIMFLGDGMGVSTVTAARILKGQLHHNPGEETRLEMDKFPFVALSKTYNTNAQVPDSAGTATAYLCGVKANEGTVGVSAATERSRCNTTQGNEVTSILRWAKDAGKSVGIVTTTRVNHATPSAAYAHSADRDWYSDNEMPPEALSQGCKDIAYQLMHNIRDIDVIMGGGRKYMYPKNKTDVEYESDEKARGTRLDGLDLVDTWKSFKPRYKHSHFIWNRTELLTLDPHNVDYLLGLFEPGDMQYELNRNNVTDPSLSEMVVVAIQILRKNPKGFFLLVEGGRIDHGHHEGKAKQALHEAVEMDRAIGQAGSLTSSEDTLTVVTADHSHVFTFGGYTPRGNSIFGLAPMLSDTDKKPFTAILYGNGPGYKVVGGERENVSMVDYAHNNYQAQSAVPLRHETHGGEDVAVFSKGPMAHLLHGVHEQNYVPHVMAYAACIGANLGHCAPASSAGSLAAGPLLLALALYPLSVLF

[2] = molecular target: T2, Intestinal-type alkaline phosphatase (Mus musculus, UniProt P24822); assay: PubChem AID 488874; type: functional
[3] = molecular target: T3, Intestinal-type alkaline phosphatase (Homo sapiens, UniProt P09923); assay: human intestinal alkaline phosphatase activators, dose response, biochemical, luminescence, uHTS hits (AID 463120); type: functional
[4] = molecular target: T3, Intestinal-type alkaline phosphatase; assay: activation of human intestinal alkaline phosphatase – biochemical, luminescent, uHTS hits, set 2, dose response (AID 488817); type: functional;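 further: potency of activators that raise enzyme activity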
[5] = molecular target: NACHT, LRR and PYD domains-containing protein 1 (Homo sapiens, UniProt Q9C000); assay: NALP1 inhibitors in yeast, dose response, luminescent (AID 488860); type: functional
Saccharomyces cerevisiae = assay: S. cerevisiae Caspase-1/ASC signal blockers IC50, NALP1 inhibitor project selectivity test (AID 488863); type: functional, organism-based
Bcl-2-like protein 10 = Bcl-2-like protein 10 (Homo sapiens, UniProt Q9HD36); assay: Bcl-B/TR3 peptide binding disruption – biochemical, fluorescence polarization, FITC-TR3 peptide, selectivity assay for Bfl-1 inhibitor project, primary screen (AID 748);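 further: fluorescence polarization from a fluorescein-labelled TR3 peptide binding purified Bcl-B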
[6] = Luminescence Cell-Based Dose Retest to Confirm Activators of 5'UTR Stem-Loop Driven Alpha-Synuclein mRNA Translation in H4 Neuroglioblastoma Cells. [Related pubchem assays (depositor defined):AID1813, AID1829]; type: functional
[7] = Luminescence Cell-Based Dose Response HTS to Identify Activators of Luciferase Translation or Activity in H4-C Neuroglioblastoma Cells. [Related pubchem assays: 1829 (Project Summary), 1814 (Primary HTS)]; type: functional
[8] = Luminescence Cell-Based Dose Response HTS to Identify Activators of Luciferase Translation or Activity in H4 […] Cells. [Related pubchem assays: 1829 (Project Summary), 1814 (Primary HTS)]; type: functional
H4 = assay: Luminescence Cell-Based Dose Response HTS to Identify Activators of 5'UTR Stem-Loop Driven Prion Protein mRNA Translation in H4 Neuroglioblastoma Cells. [Related pubchem assays: 1829 (Project Summary), 1814 (Primary HTS)]; type: functional; details: Homo sapiens
[9] = Luminescence Cell-Based Dose Confirmation HTS to Identify Activators of 5'UTR Stem-Loop Driven Alpha-Synuclein mRNA Translation in H4 Neuroglioblastoma Cells. [Related pubchem assays: 1829 (Project Summary), 1814 (Primary HTS)]; type: functional
[10] = Luminescence Cell-Based Dose Response HTS to Identify Activators of 5'UTR Stem-Loop Driven Prion Protein mRNA Translation in H4-C Neuroglioblastoma Cells. [Related pubchem assays: 1829 (Project Summary), 1814 (Primary HTS)]; type: functional
SUMO-activating enzyme [11] = molecular target: T4, SUMO-activating enzyme (Homo sapiens, UniProt Q9UBT2); assay: blockers of SAE1/SAE2–UBC9 SUMO transfer – biochemical, HTRF, uHTS, primary screen (AID 2006); type: protein-complex assay
[12] = molecular target: T5, Probable nicotinate-nucleotide adenylyltransferase (Staphylococcus aureus (strain N315), UniProt P65502); type: functional, Staphylococcus aureus subsp. aureus N315; details: read-out: IC50_Mean;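 on IC50 Mean: confirmatory dose-response retesting of NadD inhibitor hits first found in an ultra-high-throughput screen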
SUMO-activating enzyme [13] = molecular target: T4, SUMO-activating enzyme; assay: blockers of UBC9-mediated SUMO conjugation – biochemical, AlphaScreen, SUMOylation inhibitor project, confirmation (AID 2018); type: functional
[14] = molecular target: T5, Probable nicotinate-nucleotide adenylyltransferase; type: functional, Staphylococcus aureus subsp. aureus N315
[15] = molecular target: Induced myeloid leukemia cell differentiation protein Mcl-1 (Homo sapiens, UniProt Q07820); type: functional
[16] = protection from phage-mediated lysis, alamar blue read-out – E. coli UTI89, K1F phage, bacterial capsule biogenesis inhibitors (AID 488966); type: functional
[17] = molecular target: T6, Microphthalmia-associated transcription factor (Homo sapiens, UniProt O75030); assay: reducers of TRPM1 reporter luminescence, concentration series – cell-based, SK-MEL-5, cherry-picked, set 3, MITF inhibitor project, dose response (AID 493073); type: functional;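 further: SK-MEL-5 melanoma cells with luciferase driven by the MITF target TRPM1 promoter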
T6 sequence (O75030 whole entry): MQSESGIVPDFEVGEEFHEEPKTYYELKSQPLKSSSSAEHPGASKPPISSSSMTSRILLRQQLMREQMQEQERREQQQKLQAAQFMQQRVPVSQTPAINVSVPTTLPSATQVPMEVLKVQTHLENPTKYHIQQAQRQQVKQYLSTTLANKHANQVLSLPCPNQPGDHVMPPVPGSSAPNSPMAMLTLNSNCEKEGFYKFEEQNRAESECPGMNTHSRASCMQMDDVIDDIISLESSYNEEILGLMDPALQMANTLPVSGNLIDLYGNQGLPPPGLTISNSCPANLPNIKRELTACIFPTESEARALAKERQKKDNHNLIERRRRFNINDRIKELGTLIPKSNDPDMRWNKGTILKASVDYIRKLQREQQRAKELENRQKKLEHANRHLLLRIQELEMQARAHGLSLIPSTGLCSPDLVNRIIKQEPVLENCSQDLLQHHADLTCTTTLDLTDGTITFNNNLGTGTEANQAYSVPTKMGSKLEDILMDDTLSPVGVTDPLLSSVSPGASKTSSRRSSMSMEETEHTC

[18] = molecular target: Hepatocyte nuclear factor 4-alpha (Homo sapiens, UniProt P41235); type: functional, cell-based;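 further: biochemical luminescence-based dose-response counterscreen measuring inhibition of HNF4 dimerization, run alongside a screen for blockers of ABHD5–perilipin-5 interaction; split luciferase complementation of HNF4 fusion proteins in cell lysate measuring dimerization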
[19] = molecular target: T7, Voltage-gated N-type calcium channel alpha-1B subunit/Amyloid beta A4 precursor protein-binding family A member 1 (Homo sapiens, UniProt Q00975+Q02410); type: protein assay
[20] = molecular target: E3 ubiquitin-protein ligase Mdm2 (Homo sapiens, UniProt Q00987); assay: MDM2-luc reporter signal enhancers, multi-concentration potency testing, MDM2 ubiquitin-protein ligase inhibitor program, whole-cell format, luminescence detection, 384-well microplate (AID 1394); type: functional;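 further: MDM2 E3 inhibitors raise luminescence so EC50 is for signal enhancement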
[21] = molecular target: T7, Voltage-gated N-type calcium channel alpha-1B subunit/Amyloid beta A4 precursor protein-binding family A member 1; type: protein assay; remark: listed apart in the source
[22] = molecular target: T2, Intestinal-type alkaline phosphatase; assay: PubChem AID 488875; type: functional
[23] = molecular target: Potassium voltage-gated channel subfamily KQT member 2 (Rattus norvegicus, UniProt O88943); assay: potentiation of rat KCNQ2 current – cell-based, retigabine-insensitive compounds, dose response (AID 2654); type: functional
[24] = molecular target: Signal transducer and activator of transcription 3 (Homo sapiens, UniProt P40763); assay: STAT3 activation with BCL3 mRNA and toxicity – cell-based, […], BCL3 qPCR, cytotoxicity, late-stage follow-up, panel member STAT3 Activation (AID 2049)
Mu-type opioid receptor [25] = molecular target: T8, Mu-type opioid receptor (Homo sapiens, UniProt P35372); assay: SAR Analysis of Antagonists of the MOR Receptor using an Image-Based Assay - Set 3. [Related pubchem assays (depositor defined):AID1777, AID1785, AID1786, AID1966, AID2133, AID2136, AID2284, AID2285, AID2420]; type: functional
[26] = molecular target: T9, Delta-type opioid receptor (Homo sapiens, UniProt P41143); assay: SAR Analysis of Antagonists of the DOR Receptor using an Image-Based Assay - Set 3. [Related pubchem assays (depositor defined):AID1777, AID1785]; type: functional
[27] = molecular target: T10, Kappa-type opioid receptor (Homo sapiens, UniProt P41145); assay: SAR analysis of Antagonists of the Kappa Opioid Receptor (KOR) using an Image-Based Assay - Set 3. [Related pubchem assays (depositor defined):AID1777, AID1785]; type: functional
[28] = molecular target: T10, Kappa-type opioid receptor; assay: SAR analysis of small molecule antagonists of the kappa opioid receptor via a luminescent beta-arrestin assay - Set 3. [Related pubchem assays (depositor defined):AID1777, AID1778, AID1785, AID1786, AID1966, AID2133, AID2136, AID2285, AID2495]; type: functional
[29] = molecular target: T10, Kappa-type opioid receptor; assay: kappa opioid receptor activation by imaging – image-based, set 3, SAR follow-up (AID 488833); type: functional
Mu-type opioid receptor [30] = molecular target: T8, Mu-type opioid receptor; assay: SAR Analysis of Agonists of the MOR Receptor using an Image-Based Assay - Set 3. [Related pubchem assays (depositor defined):AID1777, AID1785, AID1786, AID1966, AID2133, AID2136, AID2284, AID2285, AID2352]; type: functional
[31] = molecular target: T10, Kappa-type opioid receptor; assay: SAR analysis of small molecule agonists of the kappa opioid receptor via a luminescent beta-arrestin assay - Set 3. [Related pubchem assays (depositor defined):AID1777, AID1785, AID1786, AID1966, AID2133, AID2136, AID2284, AID2500]; type: functional
[32] = molecular target: T9, Delta-type opioid receptor; assay: SAR Analysis of Agonists of the DOR Receptor using an Image-Based Assay - Set 3. [Related pubchem assays (depositor defined):AID1777, AID1786]; type: functional
Hexokinase = Hexokinase (Trypanosoma brucei, UniProt Q38C41); assay: Confirmation assay for inhibitors of Trypanosoma brucei hexokinase 1-Analogue-first series. [Related pubchem assays (depositor defined):AID1430, AID1632, AID2516, AID2560, AID2579, AID2600, AID449725, AID492951]; type: functional
[33] = molecular target: NACHT, LRR and PYD domains-containing protein 3 (Homo sapiens, UniProt Q96P20); assay: NALP3 inhibitors in yeast, dose response, luminescent (AID 488799); type: functional

T10 sequence (P41145 whole entry): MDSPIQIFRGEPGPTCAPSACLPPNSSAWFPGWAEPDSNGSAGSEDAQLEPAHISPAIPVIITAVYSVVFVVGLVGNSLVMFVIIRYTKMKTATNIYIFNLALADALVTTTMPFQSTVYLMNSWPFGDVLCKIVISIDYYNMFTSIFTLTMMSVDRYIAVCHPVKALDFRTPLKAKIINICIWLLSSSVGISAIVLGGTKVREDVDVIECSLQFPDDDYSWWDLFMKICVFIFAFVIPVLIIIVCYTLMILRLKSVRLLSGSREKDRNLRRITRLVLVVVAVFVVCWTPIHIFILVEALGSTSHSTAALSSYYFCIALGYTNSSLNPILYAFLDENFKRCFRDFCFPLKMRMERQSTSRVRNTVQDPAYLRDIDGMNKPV
T3 sequence (P09923 whole entry): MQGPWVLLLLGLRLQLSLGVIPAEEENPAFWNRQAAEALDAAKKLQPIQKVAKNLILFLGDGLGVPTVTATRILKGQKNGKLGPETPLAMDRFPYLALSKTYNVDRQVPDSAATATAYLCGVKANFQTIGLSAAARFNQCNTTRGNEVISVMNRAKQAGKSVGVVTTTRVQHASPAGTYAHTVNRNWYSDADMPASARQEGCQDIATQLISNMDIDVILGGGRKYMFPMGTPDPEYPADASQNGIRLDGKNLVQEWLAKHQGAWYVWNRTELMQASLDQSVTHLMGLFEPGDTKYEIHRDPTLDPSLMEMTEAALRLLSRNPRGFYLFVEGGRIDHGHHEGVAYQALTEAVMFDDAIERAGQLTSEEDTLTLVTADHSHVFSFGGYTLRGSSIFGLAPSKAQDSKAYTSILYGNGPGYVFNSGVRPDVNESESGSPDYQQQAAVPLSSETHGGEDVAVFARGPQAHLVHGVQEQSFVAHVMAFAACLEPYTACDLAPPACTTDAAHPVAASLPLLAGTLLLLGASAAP
T9 sequence (P41143 whole entry): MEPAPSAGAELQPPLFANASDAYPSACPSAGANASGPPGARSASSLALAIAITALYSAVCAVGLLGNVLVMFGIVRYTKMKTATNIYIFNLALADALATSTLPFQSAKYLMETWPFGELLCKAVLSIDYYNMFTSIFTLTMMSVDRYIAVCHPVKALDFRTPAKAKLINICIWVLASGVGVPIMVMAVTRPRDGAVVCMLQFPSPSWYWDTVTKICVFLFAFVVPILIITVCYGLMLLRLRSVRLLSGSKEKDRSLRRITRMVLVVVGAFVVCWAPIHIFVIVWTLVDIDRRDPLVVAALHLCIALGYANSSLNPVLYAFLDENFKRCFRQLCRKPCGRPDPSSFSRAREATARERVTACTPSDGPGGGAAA
T5 sequence (P65502 whole entry): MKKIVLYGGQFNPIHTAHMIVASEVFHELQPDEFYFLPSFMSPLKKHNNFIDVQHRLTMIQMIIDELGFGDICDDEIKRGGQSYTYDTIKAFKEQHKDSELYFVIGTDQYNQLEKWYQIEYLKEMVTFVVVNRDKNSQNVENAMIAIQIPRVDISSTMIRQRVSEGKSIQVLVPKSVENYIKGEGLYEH
T7 sequence (Q00975 whole entry): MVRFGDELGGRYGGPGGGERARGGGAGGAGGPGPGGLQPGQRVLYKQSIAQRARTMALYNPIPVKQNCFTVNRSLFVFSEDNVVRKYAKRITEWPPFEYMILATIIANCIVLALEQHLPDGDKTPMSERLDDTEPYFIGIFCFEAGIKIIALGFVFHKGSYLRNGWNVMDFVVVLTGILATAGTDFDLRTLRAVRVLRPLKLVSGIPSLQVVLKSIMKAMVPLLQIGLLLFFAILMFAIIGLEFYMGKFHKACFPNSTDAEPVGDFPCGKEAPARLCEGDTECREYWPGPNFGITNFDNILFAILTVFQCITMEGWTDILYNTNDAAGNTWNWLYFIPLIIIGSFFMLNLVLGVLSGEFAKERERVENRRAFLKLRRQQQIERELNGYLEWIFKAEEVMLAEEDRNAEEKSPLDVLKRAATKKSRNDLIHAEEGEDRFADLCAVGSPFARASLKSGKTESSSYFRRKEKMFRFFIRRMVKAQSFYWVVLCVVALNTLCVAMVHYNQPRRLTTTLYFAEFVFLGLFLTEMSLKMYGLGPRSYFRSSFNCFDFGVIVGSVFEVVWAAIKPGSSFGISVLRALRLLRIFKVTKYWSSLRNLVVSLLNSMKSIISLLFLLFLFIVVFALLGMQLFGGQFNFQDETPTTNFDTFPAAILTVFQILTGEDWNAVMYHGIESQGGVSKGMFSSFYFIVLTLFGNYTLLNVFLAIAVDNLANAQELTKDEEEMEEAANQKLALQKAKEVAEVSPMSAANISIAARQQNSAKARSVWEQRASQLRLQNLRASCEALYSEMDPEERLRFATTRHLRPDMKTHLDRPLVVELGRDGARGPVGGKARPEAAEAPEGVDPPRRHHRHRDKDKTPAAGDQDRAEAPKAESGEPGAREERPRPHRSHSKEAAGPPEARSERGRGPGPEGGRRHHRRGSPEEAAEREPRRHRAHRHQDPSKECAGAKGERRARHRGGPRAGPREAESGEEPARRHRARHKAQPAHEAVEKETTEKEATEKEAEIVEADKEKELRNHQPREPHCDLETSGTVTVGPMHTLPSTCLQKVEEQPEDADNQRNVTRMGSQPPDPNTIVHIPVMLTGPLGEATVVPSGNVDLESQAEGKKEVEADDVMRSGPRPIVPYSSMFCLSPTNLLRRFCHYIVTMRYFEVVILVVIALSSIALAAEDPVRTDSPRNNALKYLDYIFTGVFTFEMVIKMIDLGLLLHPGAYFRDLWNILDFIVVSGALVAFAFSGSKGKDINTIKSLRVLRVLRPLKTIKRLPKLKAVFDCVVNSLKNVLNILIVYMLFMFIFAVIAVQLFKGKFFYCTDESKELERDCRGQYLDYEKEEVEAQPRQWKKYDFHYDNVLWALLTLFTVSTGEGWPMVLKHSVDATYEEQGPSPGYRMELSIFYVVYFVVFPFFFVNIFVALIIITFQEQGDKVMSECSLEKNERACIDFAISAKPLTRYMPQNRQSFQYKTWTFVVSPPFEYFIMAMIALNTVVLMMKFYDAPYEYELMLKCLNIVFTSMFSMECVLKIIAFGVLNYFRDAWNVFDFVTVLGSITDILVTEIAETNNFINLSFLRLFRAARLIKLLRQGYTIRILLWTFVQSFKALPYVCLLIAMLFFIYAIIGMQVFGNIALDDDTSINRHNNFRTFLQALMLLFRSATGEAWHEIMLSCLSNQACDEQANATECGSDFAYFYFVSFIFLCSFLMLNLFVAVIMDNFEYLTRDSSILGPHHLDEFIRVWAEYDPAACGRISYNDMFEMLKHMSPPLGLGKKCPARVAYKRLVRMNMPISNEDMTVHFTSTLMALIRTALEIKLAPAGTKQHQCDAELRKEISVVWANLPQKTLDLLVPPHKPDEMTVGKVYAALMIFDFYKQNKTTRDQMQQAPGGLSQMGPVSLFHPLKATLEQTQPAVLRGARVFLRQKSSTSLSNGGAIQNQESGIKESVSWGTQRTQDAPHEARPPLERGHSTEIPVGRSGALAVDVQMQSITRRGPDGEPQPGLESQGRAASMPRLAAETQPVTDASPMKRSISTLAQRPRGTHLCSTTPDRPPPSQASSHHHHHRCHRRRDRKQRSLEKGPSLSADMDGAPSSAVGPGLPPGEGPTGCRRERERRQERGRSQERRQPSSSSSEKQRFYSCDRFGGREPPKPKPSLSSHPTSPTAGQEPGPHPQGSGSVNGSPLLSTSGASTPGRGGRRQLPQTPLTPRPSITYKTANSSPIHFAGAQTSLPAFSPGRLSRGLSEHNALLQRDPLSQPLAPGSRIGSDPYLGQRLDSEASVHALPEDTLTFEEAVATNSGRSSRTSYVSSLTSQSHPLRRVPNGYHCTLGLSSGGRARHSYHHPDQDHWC
T7 sequence (Q02410 whole entry): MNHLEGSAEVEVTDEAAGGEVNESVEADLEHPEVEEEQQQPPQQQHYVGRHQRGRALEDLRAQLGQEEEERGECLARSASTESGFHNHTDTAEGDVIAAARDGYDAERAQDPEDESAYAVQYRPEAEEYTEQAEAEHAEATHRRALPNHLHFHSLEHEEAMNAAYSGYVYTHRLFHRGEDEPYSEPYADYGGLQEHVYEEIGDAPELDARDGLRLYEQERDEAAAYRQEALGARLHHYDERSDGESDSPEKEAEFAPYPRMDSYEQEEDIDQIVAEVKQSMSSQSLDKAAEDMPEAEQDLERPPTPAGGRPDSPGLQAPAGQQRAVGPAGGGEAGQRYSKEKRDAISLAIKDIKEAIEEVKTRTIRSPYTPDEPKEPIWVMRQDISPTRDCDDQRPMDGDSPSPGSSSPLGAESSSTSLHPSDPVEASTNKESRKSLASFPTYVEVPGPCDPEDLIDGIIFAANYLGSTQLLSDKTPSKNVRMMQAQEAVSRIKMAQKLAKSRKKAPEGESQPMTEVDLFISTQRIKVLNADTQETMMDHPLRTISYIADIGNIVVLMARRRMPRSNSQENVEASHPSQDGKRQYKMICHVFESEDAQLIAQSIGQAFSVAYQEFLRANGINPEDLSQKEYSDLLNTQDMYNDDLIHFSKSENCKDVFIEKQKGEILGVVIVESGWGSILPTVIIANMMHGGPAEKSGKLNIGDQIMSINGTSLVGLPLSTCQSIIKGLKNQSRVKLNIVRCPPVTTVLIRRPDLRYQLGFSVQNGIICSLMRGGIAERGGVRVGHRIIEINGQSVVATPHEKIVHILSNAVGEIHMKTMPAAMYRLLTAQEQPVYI
T8 sequence (P35372 whole entry): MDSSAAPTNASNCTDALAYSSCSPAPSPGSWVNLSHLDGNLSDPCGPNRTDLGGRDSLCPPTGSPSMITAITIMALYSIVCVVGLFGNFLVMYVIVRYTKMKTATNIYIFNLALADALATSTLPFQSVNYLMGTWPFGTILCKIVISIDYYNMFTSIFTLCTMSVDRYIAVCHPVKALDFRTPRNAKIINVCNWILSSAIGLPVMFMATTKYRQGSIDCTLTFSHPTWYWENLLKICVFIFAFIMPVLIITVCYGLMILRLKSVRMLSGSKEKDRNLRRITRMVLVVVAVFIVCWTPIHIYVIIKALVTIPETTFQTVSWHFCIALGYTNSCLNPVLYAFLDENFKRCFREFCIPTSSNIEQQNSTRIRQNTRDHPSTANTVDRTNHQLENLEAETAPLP

Structure (SMILES): COc1ccccc1C1=NN(C2=NN=C(N)Cc3ncnn32)C(O)(C(F)(F)F)C1 (stereo not given)
- EC50 [1]: 11.7 µM (active)
- IC50 [2]: 42.2 µM (active)
- EC50 [3]: 7.06 µM (active)
- EC50 [4]: 9.66 µM (active)

Structure (SMILES): Cc1cc(Cl)c(OCCCCN2CCOCC2)c(Br)c1
- IC50 [5]: > 100 µM (inactive)
- IC50 (Saccharomyces cerevisiae): > 100 µM (inactive)

Structure (SMILES): COc1ccc(OC)c(NC(=O)CCN2CCC(C)CC2)c1
- IC50 (Bcl-2-like protein 10): > 100 µM (inactive)

Structure (SMILES): O=C1CCCCCN1Cc1nnc(SCc2nc3ccccc3s2)n1-c1ccccn1
- EC50 [6]: > 195 µM (inactive)
- EC50 [7]: 0.207 µM (active)
- EC50 [8]: 25 µM (active)
- EC50 (H4): 80.9 µM (inconclusive)
- EC50 [9]: 1.08 µM (active)
- EC50 [10]: 1.89 µM (active)

Structure (SMILES): N#Cc1c(NC(=O)CSc2ncnc3sccc23)oc(-c2ccco2)c1-c1ccco1
- IC50 (SUMO-activating enzyme [11]): 22.9 µM (active)
- IC50 [12]: 27.8 µM (active)
- IC50 (SUMO-activating enzyme [13]): 2.82 µM (active)
- IC50 [14]: 8.79 µM (active)
- IC50 [15]: 4.69 µM (active)

Structure (SMILES): COc1ccc(NC(=O)/C=C2\SC(=O)NC2=O)cc1
- IC50 [16]: > 150 µM (active)

Structure (SMILES): COCCNC(=O)/C(C#N)=C/c1cccc(/C=C(\C#N)C(=O)NCCOC)c1
- AC50 [17]: 12.7 µM (active)
- IC50 [18]: 1.51 µM (active)
- IC50 [19]: > 50 µM (inactive)
- EC50 [20]: 0.94 µM (active)
- IC50 [21]: > 56.8 µM (not active)

Structure (SMILES): Cc1cccc(NS(=O)(=O)c2cccc(C(=O)NNC(=O)c3ccccc3O)c2)c1
- EC50 [1]: 0.705 µM (active)
- EC50 [22]: > 100 µM (inactive)
- EC50 [3]: 16.1 µM (active)
- EC50 [4]: 23.5 µM (active)

Structure (SMILES): O=C(Nc1ccc(Cl)nc1)Nc1cccc(F)c1
- EC50 [23]: 2.81 µM (active)

Structure (SMILES): COc1ccccc1NC(=O)c1cc(-c2ccccc2)on1
- EC50 [24]: 9.62 µM (active)

Structure (SMILES): CC(C)N(CCNC(=O)c1ccc(CNS(=O)(=O)c2ccc(Br)cc2)cc1)Cc1ccccc1
- IC50 (Mu-type opioid receptor [25]): 3.22 µM (active)
- IC50 [26]: > 32 µM (inactive)
- IC50 [27]: 0.421 µM (active)
- IC50 [28]: 1.32 µM (active)

Structure (SMILES): Clc1ccccc1CSc1nnc(-c2ccccn2)n1Cc1cccs1
- EC50 [29]: 4.06 µM (active)
- EC50 (Mu-type opioid receptor [30]): > 32 µM (inactive)
- EC50 [31]: 10.1 µM (inactive)
- EC50 [32]: > 32 µM (inactive)

Structure (SMILES): COc1ccc(C(=O)N2CCC(=O)c3ccc(Cl)cc32)cc1
- IC50 (Hexokinase): > 25 µM (inactive)

Structure (SMILES): CCCCCC(=O)N1CCN(CC/N=C/C2=C(O)CC(c3ccco3)CC2=O)CC1 (stereo not given)
- IC50 [33]: 7.3 µM (active)
